Measured values from patent publication US6476203B1, “Safe pharmaceutical composition for treating and preventing infertility and increasing immune function” (priority 2002, dated 2002).
Marks after values point to notes of the source that are not given here.

Experiments:
[1] = tested on: human blood lymphocytes; assay: Effects of ICN on immune function of human blood lymphocytes (3H-TdR incorporation); format: cell-based; details: for CPM (3H-TdR incorporation into lymphocytes): ICN added to culture medium
Protocol: 2 ml of venous blood, heparinized was obtained from each of the participants. […] MEM was supplemented with 0.125 ml of heat-inactivated fetal calf serum, 100 units of Penicillin and 0.1 mg of streptomycin per ml of medium. Culture medium was divided into treated (ICN) and control group. ICN was added to the culture medium of treatment group. […] The ^3H-thymidine (^3H-TdR) was added into all the cultures (2 μci/ml) for last 12 hours of culture. The cells were harvested on 0.45 μm filters, washed with phosphate buffer (ph 7.4) and bleached with H2O2. The filters were then dried and the incorporation of ^3H-TdR into lymphocytes cell was measured by scintillation counter.

[2] = tested on: white blood cells; assay: Effect of ICN on white blood cells in rats treated by cyclophosphamide; format: in vivo
Excerpt: Action of ICN and cyclophosphamide on white blood cells was investigated by means of white blood cells assay. […] Method of testing in animal is standard. The dosage of ICN and cyclophosphamide is the same as in above examples. Time of treatment is 10 days.

[3] = tested on: peritoneal macrophage; assay: Effect of ICN on phagocytosis of peritoneal macrophage; format: in vivo; details: mice, ICN 5.5 mg/kg i.p. daily for 5 days, cyclophosphamide 4.5 mg/kg; macrophages with phagocytized chick red blood cells per 100 macrophages
Protocol: The control mice were injected with same volume of normal saline. These injections were repeated daily for 5 days, both treated and control group were injected intraperitoneally with cyclosphosphamide. The dosage of cyclophosphamide is 4.5 mg/kg. The same experimental procedure for example 3, 4 and 5 in testing mice were used. Added 0.02 ml of 5% washed chick red blood cell suspension to 0.5 ml of the peritoneal exudates. Shook gently to mix and incubate at 37° C. for 5 minutes. Dipped two cover slips, closed to each other, in the above mixture and incubated for 30 minutes for the migration of the macrophages along the cover slips, fixed and stained with Sharma stain. Examined microscopically for: Phagocytic rate—number of macrophages with phagocytized chick red blood cells per 100 macrophages counted. Method of animal model is regular.

[4] = tested on: interleukin-2 (rIL-2); assay: Effect of ICN on interleukin-2 (rIL-2); format: in vivo; details: treatment group
Excerpt: The methods of determination rIL-2 were regular.

[5] = tested on: lymphocytes; assay: Effect of ICN on lymphoblastoid transformation (3H-TdR liquid scintillation); format: in vivo, mice; details: 3H-TdR uptake, PHA-stimulated lymphocytes
Protocol: (1) Experimental procedure of animal is the same as in Example 2.
(2) Lemphoblastoid transformation test:
I. Reagents and conditions for cell culture
a. Culture media—RPMI 1640, medium 199 minimal essential medium (Eagle).
b. Buffer—Hepes buffer, the final concentration at 37° C. was 25 mM, to maintain the pH of the medium at 7.31.
c. Serum—generally 15-205 fetal bovine serum was incorporated, for lymphocytes from mice, 5% was used.
d. Gaseous phase—5% CO2 in air.
e. Cell concentration—generally 1-2 c 10^6/ml.
f. Stimulants—20μl/ml for phytohemagglutinin containing polysaccharide (PHA-M) or 10 μl/ml for polysaccharide-free purified phytohemagglutinin (PHA-P).
II. Measured by liquid scintillation
a. The conditions of cell culture are same as above. ^3H-TdR was added after 48 hours of incubation at a final concentration of 1 μCi/ml and continued the incubation for 24 hours.
b. Washed the cells twice with cold normal saline and the erythrocytes were lysed. The intact lymphocytes were again washed once with cold saline. Spun down the lymphocytes and added 2 ml of 10% trichloroacetic acid to precipitate the protein. Washed twice with normal saline. Added 2 ml of ethanol:ether (1:1) to wash once. 0.2 ml of formic acid was then added for digestion till the precipitate was dissolved.
c. Added 4 ml of scintillation fluid to 0.1 ml of the final sample and counted in a liquid scintillation counter.

[6] = tested on: male mice; assay: Effect of ICN on sexual behavior (ejaculation experiments); format: in vivo
Excerpt: Selected 50 mice including male: 28-32g and female: 24-26g. The age of mice is over 8 weeks. The mice were divided normal group, suspend-loaded group, large dosage of ICN group, small dosage of ICN group and positive control group. The index of major sexual behaviors of male mice is ejaculation experiments operated on 15th day.

[7] = tested on: Lipoperoxides; assay: Effect on peroxidation (hepatic lipoperoxide content); format: in vivo
Protocol: The animal experiments were performed as previously described. Hepatic lipoperoxide content was determined. In the present study, the effect of SCS on lipoperoxides was examined. It is known that the pathogenesis of CCl4—induced hepatic damage involved reactive oxidant species increasing from the metabolism. The liver injure caused by CCl4 is due to the formation of a reactive toxic metabolite by the hepatic cytochrome P-450 system.

[8] = tested on: bone marrow stem cells (CFU-S); assay: Effects of ICN on hemopoietic system (spleen colony assay); format: in vivo, mice
Excerpt: With increased cells in bone-marrow (BMC), endogenous colonies in spleen and higher ^3H-TdR uptake in marrow and spleen. The level of serum colony stimulating factor (CSF) increased after injection.

[9] = tested on: testosterone; assay: Effect of ICN on testosterone (radioimmune method); format: in vivo, Wistar male rats
Protocol: Thirty normal Wistar male rats weighing 280+20 g were selected.
The rats were killed 30th days after the administration. The testosterone level of the rats in various groups was determined by using radioimmune method. The index of testis was determined. Control group was pathological model group. In control group, rats treated by cyclophosphamide (CYE). Rats treated by ICN+CYE in treatment group.

[10] = mice treated by cyclophosphamide

Icariin [ICN]
CPM (3H-TdR incorporation into lymphocytes) ([1]; Old (n = 20)): 2500 ± 350 CPM | CPM (3H-TdR incorporation into lymphocytes) ([1]; Young (n = 20)): 8155 ± 986 CPM | human immune function (in words) ([1]; summary of Table 5-10): increase human immune function significantly | protection of white blood cells from killing effect of cyclophosphamide ([2]; rats): protected | White blood cells × 10^3/cm^3 ± SD ([2]; rats treated by cyclophosphamide, 10 days treatment): 12.8 ± 2.0* 10^3/cm^3 | Phagocytic (rate ± SD) [3]: 28.5 ± 3.0 | IL-2 (U/ml) ± SD [4]: 79.0 ± 8.5 U/ml | CPM ± SD (lymphoblastoid transformation) [5]: 1150 ± 120 CPM | Ejaculation proportion ([6]; male mice, 15th day): 93% | treatment of infertility (in words) ([6]; summary of Table 4): marked efficiency | Lipoperoxides ([7]; 1 h): 0.75 ± 0.08 mmol MDA/g liver protein | Lipoperoxides ([7]; 3 h): 0.70 ± 0.07 mmol MDA/g liver protein | Lipoperoxides ([7]; 6 h): 0.80 ± 0.9 mmol MDA/g liver protein | Lipoperoxides ([7]; 12 h): 0.70 ± 0.9 mmol MDA/g liver protein | Lipoperoxides ([7]; 24 h): 1.0 ± 0.12 mmol MDA/g liver protein | protection of stem cells of bone marrow from killing effect of cyclophosphamide ([8]; mice): protected | 3H-TdR uptake in marrow and spleen [8, 10]: higher | cells in bone-marrow (BMC) [8, 10]: increased | endogenous colonies in spleen [8, 10]: increased | recovery rate of hemopoieses [8, 10]: markedly improve | Mean (CFU-S ± SD) ([8]; mice treated by cyclophosphamide, spleen colony assay): 27.2 ± 3.0 | Testosterone level ([9]; rats treated by ICN+CYE (cyclophosphamide), killed 30th day after administration, X ± SD): 154.6 ± 19.8 ng/dL | level of testosterone (in words) ([9]; summary of Table 1): increase the level of testosterone significantly
